Results on eight compounds are retold here after patent publication US4861763A, “17 α-(substituted-methyl)-17β-hydroxy/esterified hydroxy steroids and their progestational use” (Research Triangle Institute, priority 1988, dated 1989).

Read-outs that look alike come from different tables or passages of the source.

In one assay the target is T1, glucocorticoid receptor (Rattus norvegicus, UniProt P06536).
T1 construct: glucocorticoid receptor from thymus of adrenalectomized rats; from tissue; host or cells: thymus cytosol of adrenalectomized rats
T1 sequence (P06536 1-795): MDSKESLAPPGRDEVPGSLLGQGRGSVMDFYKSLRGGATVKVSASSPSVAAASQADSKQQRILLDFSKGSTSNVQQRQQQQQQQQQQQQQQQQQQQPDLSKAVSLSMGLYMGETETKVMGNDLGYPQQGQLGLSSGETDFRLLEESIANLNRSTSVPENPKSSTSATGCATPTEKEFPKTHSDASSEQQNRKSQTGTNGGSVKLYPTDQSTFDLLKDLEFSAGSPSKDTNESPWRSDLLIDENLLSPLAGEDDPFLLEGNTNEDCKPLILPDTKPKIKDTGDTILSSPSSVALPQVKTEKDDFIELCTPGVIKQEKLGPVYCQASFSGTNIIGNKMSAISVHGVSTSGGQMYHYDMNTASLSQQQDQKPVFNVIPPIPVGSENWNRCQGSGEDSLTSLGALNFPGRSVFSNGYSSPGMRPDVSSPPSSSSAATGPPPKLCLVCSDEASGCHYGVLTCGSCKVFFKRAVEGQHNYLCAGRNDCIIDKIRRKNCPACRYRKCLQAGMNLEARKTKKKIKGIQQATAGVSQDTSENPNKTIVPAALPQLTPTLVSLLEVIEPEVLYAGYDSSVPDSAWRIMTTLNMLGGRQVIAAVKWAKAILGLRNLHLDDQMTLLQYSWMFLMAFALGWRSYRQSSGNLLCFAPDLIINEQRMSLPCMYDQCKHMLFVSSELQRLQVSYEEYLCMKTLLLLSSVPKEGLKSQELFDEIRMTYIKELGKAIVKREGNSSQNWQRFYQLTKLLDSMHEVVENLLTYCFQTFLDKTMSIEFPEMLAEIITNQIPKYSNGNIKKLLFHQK
Kind of assay: relative binding affinity (RBA) for glucocorticoid receptor from thymus of adrenalectomized rats. To be noted: for binding to the glucocorticoid receptor, times the RBA of dexamethasone: compared with dexamethasone; for RBA for Glucocorticoid receptor: relative to dexamethasone = 100, average of 1-3 assays. The procedure:
(§1) concentrations) with cytosol containing the receptor and a tritiumlabeled
(§2) required to displace 50% of bound radioligand is determined graphically

A further assay addresses T2, estrogen receptor (Rattus norvegicus, UniProt P06211).
T2 construct: estrogen receptor from immature rat uterus; from tissue; host or cells: uterus cytosol of immature rats
T2 sequence (P06211 1-600): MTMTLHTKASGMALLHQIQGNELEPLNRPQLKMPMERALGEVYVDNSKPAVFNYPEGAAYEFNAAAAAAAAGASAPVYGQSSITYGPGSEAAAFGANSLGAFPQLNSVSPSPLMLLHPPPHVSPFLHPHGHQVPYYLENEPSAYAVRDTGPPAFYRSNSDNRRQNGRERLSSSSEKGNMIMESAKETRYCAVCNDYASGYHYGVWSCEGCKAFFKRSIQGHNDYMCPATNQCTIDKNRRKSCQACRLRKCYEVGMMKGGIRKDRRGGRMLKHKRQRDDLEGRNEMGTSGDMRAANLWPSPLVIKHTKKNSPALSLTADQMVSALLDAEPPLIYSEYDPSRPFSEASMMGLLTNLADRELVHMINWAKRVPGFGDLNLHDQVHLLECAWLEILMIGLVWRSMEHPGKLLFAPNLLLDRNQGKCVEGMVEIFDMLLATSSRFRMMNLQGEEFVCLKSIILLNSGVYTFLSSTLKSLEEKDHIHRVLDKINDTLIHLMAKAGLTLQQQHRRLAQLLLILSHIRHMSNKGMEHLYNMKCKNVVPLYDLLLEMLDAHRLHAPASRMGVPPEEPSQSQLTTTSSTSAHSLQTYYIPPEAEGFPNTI
Kind of assay: relative binding affinity (RBA) for estrogen receptor from immature rat uterus. As to the method:
as §1, §2

Another assay addresses T3, progesterone receptor (Oryctolagus cuniculus, UniProt P06186).
T3 construct: cytosol obtained from estrogen-primedimmature rabbit uterus; from tissue; host or cells: uterus cytosol of estrogen-primed immature rabbits
T3 sequence (P06186 1-930): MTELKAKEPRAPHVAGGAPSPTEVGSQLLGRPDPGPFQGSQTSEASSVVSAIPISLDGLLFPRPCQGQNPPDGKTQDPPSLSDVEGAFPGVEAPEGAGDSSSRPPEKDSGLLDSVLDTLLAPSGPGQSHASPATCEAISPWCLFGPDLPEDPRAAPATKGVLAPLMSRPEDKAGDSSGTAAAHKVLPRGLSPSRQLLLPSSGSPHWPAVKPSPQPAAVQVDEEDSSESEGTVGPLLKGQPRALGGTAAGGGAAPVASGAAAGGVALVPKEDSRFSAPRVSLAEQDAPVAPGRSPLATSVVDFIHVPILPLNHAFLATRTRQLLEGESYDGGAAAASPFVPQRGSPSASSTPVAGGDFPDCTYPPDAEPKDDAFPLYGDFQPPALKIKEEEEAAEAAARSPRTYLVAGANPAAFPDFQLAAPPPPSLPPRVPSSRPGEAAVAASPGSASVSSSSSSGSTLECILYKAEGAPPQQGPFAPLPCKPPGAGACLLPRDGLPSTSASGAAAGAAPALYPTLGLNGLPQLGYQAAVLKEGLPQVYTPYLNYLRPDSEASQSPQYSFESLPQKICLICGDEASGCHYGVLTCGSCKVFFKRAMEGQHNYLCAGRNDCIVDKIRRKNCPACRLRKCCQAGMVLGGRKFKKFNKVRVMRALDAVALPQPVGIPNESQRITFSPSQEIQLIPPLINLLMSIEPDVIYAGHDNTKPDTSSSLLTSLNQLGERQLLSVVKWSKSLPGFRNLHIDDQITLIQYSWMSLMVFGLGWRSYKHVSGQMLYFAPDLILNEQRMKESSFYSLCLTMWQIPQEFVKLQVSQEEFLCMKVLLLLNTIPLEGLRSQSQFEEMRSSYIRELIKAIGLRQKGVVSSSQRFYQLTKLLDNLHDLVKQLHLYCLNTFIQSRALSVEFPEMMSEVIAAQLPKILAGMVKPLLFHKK
Kind of assay: relative binding affinity (RBA) for progesterone receptor in cytosol of estrogen-primed immature rabbit uterus. To be noted: relative to progesterone = 100; average of 1-3 assays. As to the method: as §1, §2

The conditions of assay [1]: vs levonorgestrel; cited from earlier work.
The conditions of assay [2]: in vivo; cited from earlier work.
The test system of assay [3] is endometrial response due to subcutaneous administration of progesterone. Kind of assay: in vivo antiprogestational activity, intrauterine (McGinty test). Also on record: species or system rabbit. The source says: (§3) The antiprogestational activity of compound XVa was studied after both intrauterine and oral administration. […] The methodology used for the intrauterine test has been described by D. A. McGinty et al [Endocrinology, 24, 829 (1939)]. For oral administration of test compounds the method used was analogous to that of Clauberg [Clauberg, Zentr. Gynakol, 54, 2757 (1930)] as modified by McPhail [J. Physiol. (London) 83, 145 (1935)].
(§4) ^a Immature female rabbits are primed with estrogen and dosed with
(§5) stained and scored for endometrial proliferation according to McPhail.

The test system is the same in assay [4]. Kind of assay: in vivo antiprogestational activity, oral (Clauberg test modified by McPhail). Also noted: species or system rabbit.
Text: as §3, §4, §5

Where [5] appears, read: relative to estradiol = 100, average of 1-3 assays.

In the case of “11β-(4-Dimethylaminophenyl)-17β-hydroxy-17α-methoxymethyl-4,9-estradien-3-one [XVc]”, at glucocorticoid receptor, the “binding to the glucocorticoid receptor, times the RBA of dexamethasone” value is “ca. 3 times” and the “RBA for Glucocorticoid receptor” value was found to be 413. For the same compound, on estrogen receptor (setting [5]), the “RBA for Estrogen receptor” value came out at 0. For the same compound, at progesterone receptor, the “RBA for Progestin receptor” value is 54.
Take “11β-(4-Dimethylaminophenyl)-17β-hydroxy-17α-prop-2-yn-1-yl- 4,9-estradien-3-one [XVe]”: the “RBA for Glucocorticoid receptor” value on glucocorticoid receptor is 100. Also, at estrogen receptor (setting [5]), the “RBA for Estrogen receptor” value turned out to be 0. Besides, the “RBA for Progestin receptor” value on progesterone receptor came out at 23.
As to `C[C@@H]1C[C@H]2[C@@H]3CCC4=CC(=O)C=C[C@]4(C)[C@@]3(F)[C@@H](O)C[C@]2(C)[C@@]1(O)C(=O)CO` [Dexamethasone, reference compound], the “RBA for Progestin receptor” value at progesterone receptor stood at 0.1.
As to `C[C@]12CCC3=C4CCC(=O)C=C4CC[C@H]3[C@@H]1CC[C@@]2(O)CC#N` [STS 557], in assay [1], the “oral potency as a gestagen relative to levonorgestrel” value is listed as “ten times”. In assay [2], the “progestational activity” value is given as “strong progestational activity”.
With `CC(=O)[C@H]1CC[C@H]2[C@@H]3CCC4=CC(=O)CC[C@]4(C)[C@H]3CC[C@]12C` [Progesterone, reference compound], the “RBA for Estrogen receptor” value at estrogen receptor (setting [5]) came out at 0.
For the compound “11β-(4-Dimethylaminophenyl)-17β-hydroxy-17α-azidomethyl-4,9-estradien-3-one [XVb]”, the “RBA for Glucocorticoid receptor” value at glucocorticoid receptor is recorded as 143. In addition, the “RBA for Estrogen receptor” value on estrogen receptor (setting [5]) amounted to 0. For the same compound, on progesterone receptor, the “RBA for Progestin receptor” value worked out at 71.
`CN(C)c1ccc([C@H]2C[C@@]3(C)[C@@H](CC[C@@]3(O)CC#N)[C@@H]3CCC4=CC(=O)CCC4=C32)cc1` [XVa, 17α-Cyanomethyl-11β-(4-dimethylaminophenyl)-17β-hydroxy-4,9-estradien-3-one]: the “RBA for Glucocorticoid receptor” value on glucocorticoid receptor stood at 74. The “RBA for Estrogen receptor” value on estrogen receptor was determined as 0. For the same compound, the “RBA for Progestin receptor” value on progesterone receptor was 33. Moreover, the “% Inhibition of Progestational Response” value in assay [3] (total dose per rabbit 1.0 μg) is 7.3 ± 4.5%; in assay [3] (total dose per rabbit 5.0 μg), 26.7 ± 4.5%; in assay [3] (total dose per rabbit 10.0 μg) it was 80.5 ± 9.8%; in assay [3] (total dose per rabbit 40.0 μg) it was 96.3 ± 3.7%; in assay [4] (total dose per rabbit 5 mg), 7.8 ± 6.0%; in assay [4] (total dose per rabbit 10 mg), 56.2 ± 7.1%. Moreover, the “% Inhibition of Progestational Response” value in assay [4] (total dose per rabbit 20 mg) stood at 79.1 ± 7.4%.
On to “11β-(4-Dimethylaminophenyl)-17β-hydroxy-17α-benzyl-4,9-estradien-3-one [XVd]”, for which, on glucocorticoid receptor, the “binding to the glucocorticoid receptor, times the RBA of dexamethasone” value is given as “ca. 3 times” and the “RBA for Glucocorticoid receptor” value came out at 274. Besides, on estrogen receptor (setting [5]), the “RBA for Estrogen receptor” value is recorded as 0. In addition, on progesterone receptor, the “RBA for Progestin receptor” value is recorded as 64.
